The values that follow come from PMC7157825, “Romo1-Derived Antimicrobial Peptide Is a New Antimicrobial Agent against Multidrug-Resistant Bacteria in a Murine Model of Sepsis” (mBio, 2020).

Data set [1] deals with S. aureus (ATCC 29213). The format is cell-based, Staphylococcus aureus. As to conditions: ATCC 29213, 1 h, pH 7.4.
Experimental: (§1) The minimum bactericidal concentration was determined as previously described with minor modifications ([29]). Briefly, bacteria (5 × 10^5 CFU/ml) in 10 mM phosphate buffer (pH 7.4) with a 1% volume of TS broth were incubated with various peptide dilutions in a 96-well plate. After incubation for 1 h, samples were placed on TS agar plates and incubated overnight at 37°C. The peptide concentration at which no colonies were identified on the plate was determined to be the MBC.
Data set [2] deals with P. aeruginosa (ATCC 27853). The format is cell-based, Pseudomonas aeruginosa. The settings on record: ATCC 27853, 1 h, pH 7.4.
Experimental: as §1
In data set [3] the test system is C57BL/6 mouse. The experiment in a line: Single-dose safety in mice. As to conditions: single dose 100 mg/kg intravenously; tracked for 15 days; compared to PBS.
The test system of data set [4] is P. aeruginosa (ATCC 27853). The experiment in a line: Murine model of sepsis. The format is in vivo, mouse.
Data set [5] relates to CRPA. Kind of data set: Murine model of sepsis caused by MDR bacteria. In kind it is in vivo, mouse. As to conditions: for increase of survival rate: 8 × 10^7 CFU iv, AMPR-11 10 mg/kg iv single dose, imipenem 10 mg/kg ip four times q12h, 15 mice/group.
The nature of data set [6]: Effect of blood components on antimicrobial activity. In kind it is in vitro ADME. As to conditions: mouse RBCs, human LDL, human HDL, bovine serum albumin; incubated for indicated times, then bacteria 1 h; CFU assay.
Data set [7] concerns MRSA. Kind of data set: Murine model of sepsis caused by MDR bacteria. The format is in vivo, mouse. The settings on record: for increase of survival rate: 3 × 10^8 CFU iv, AMPR-11 10 mg/kg iv single dose, imipenem 10 mg/kg ip four times q12h, 15 mice/group.
Data set [8] concerns Mouse RBCs. In kind it is cell-based. The protocol:
Mouse RBCs were rinsed several times with PBS and centrifuged for 10 min at 2,000 rpm. […] After incubating for 1 h, the cells were pelleted at 1,000 × g for 10 min, and the absorbance of the supernatant was measured at 570 nm. The OD of the control was that of PBS (blank), and 1% Triton X-100 was used as the positive control.

Data set [9] is described as follows: Functional half-life of antimicrobial activity in mouse plasma. The format is in vitro ADME. As to conditions: 75% PBS and 25% mouse plasma (EDTA separation); pre-incubation 0, 5, 15, 30, 45, 60, or 75 min, then P. aeruginosa or S. aureus for 1 h; read-out CFU assay (antimicrobial activity).
Data set [10] concerns S. pneumoniae. The format is cell-based. The settings on record: 1 h, pH 7.4.
Experimental: as §1
The test system of data set [11] is Vancomycin-resistant S. aureus. The format is cell-based, Staphylococcus aureus. As to conditions: 1 h, pH 7.4.
Experimental: as §1
Data set [12] deals with S. aureus (ATCC 29213). Kind of data set: Murine model of sepsis. In kind it is in vivo, mouse.
Data set [13] has as its system K. pneumoniae (ATCC 13883). The experiment in a line: Murine model of sepsis. In kind it is in vivo, mouse.
The subject of data set [14] is A. baumannii (ATCC 19606). Kind of data set: Murine model of sepsis. In kind it is in vivo, mouse.
Data set [15] has as its system CRAB. Kind of data set: Murine model of sepsis caused by MDR bacteria. The settings on record: 5 × 10^8 CFU iv; AMPR-11 10 mg/kg iv single dose; imipenem 10 mg/kg ip four times q12h; 15 mice/group. In kind it is in vivo, mouse.
Data set [16] in a line: Protein lipid overlay (PLO) assay. As to conditions: TAMRA-AMPR-11 2 μg/ml, 2 h; 20 pmol of each lipid (PC, PG, PS, PE, PA, PI, lipid A, CL) on nitrocellulose. In kind it is binding. The protocol: The experiment was performed as previously described ([53]) with minor modifications. The lipid of PC, PG, PS, PE, PA, PI, lipid A, or CL was diluted and placed on the supported nitrocellulose membrane at 20 pmol and dried at room temperature. The membrane was blocked with Tris-buffered saline-Tween 20 (TBS-Tween 20, 50 mM Tris-HCl, 150 mM NaCl, and 0.1% Tween 20) containing 0.2% fatty acid-free bovine albumin for 1 h. After several washes in TBS, the membrane was incubated with TAMRA-AMPR-11 at 2 μg/ml in blocking solution for 2 h. After several washes with TBS-Tween 20, the fluorescent signal was detected using a fluorescent image scanner (Typhoon FLA 9500).

Data set [17] concerns CRKP. The experiment in a line: Murine model of sepsis caused by MDR bacteria. In kind it is in vivo, mouse. As to conditions: 8 × 10^8 CFU iv; AMPR-11 10 mg/kg iv single dose; imipenem 10 mg/kg ip four times q12h; 15 mice/group.
Data set [18] can be described thus: CF release from CF-encapsulated large unilamellar vesicles. As to conditions: 1 μg/ml of peptide; fluorescence; compared with melittin, magainin 2, daptomycin. The protocol: Portions (10 μl) of the lipid mixture of E. coli total lipid extract were dried and rehydrated with 50 mM CF, 100 mM sucrose, and 5 mM HEPES/KOH (pH 7.4). Multilamellar liposomal suspensions were extruded with a 0.1-μm polycarbonate membrane using an Avanti Mini Extruder and purified by a PD-10 column (GE Healthcare, Buckinghamshire, United Kingdom) as previously described. The peptides were added to LUVs, and CF leakage was measured using Fluroskan Ascent FL (Thermo Labsystems, UK) in external buffer (150 mM KCl and 10 mM HEPES/Tris; pH 7). CF leakage was calculated using the following formula: CF leakage (%) = 100 × (F – F0)/(Fmax – F0), where F is the measured fluorescence intensity, F0 is the basal LUV fluorescence intensity, and Fmax is the fluorescence intensity of LUVs treated with 0.2% Triton X-100.

The test system of data set [19] is Vancomycin-resistant E. faecium. In kind it is cell-based, Enterococcus faecium. The settings on record: 1 h, pH 7.4.
Experimental: as §1
Data set [20] is described as follows: Functional half-life of antimicrobial activity in human serum. As to conditions: human serum (H4522; Sigma-Aldrich); pre-incubation 0, 5, 15, 30, 45, 60, or 75 min, then P. aeruginosa or S. aureus for 1 h; read-out CFU assay (antimicrobial activity). The format is in vitro ADME.
For data set [21], the system named is GFP-expressing EIEC. Kind of data set: GFP efflux / permeabilization of GFP-expressing EIEC. The format is cell-based, Enteroinvasive Escherichia coli. As to the method: Flow cytometric assay to measure the efflux of GFP from GFP-expressing EIEC was performed using a FACS Canto II (Biosciences, CA). […] The number of internalized EIEC in HeLa cells (pcDNA 3.1 or pcDNA 3.1-Flag-Romo1/Control siRNA, Romo1 siRNA-1, or Romo1 siRNA-2) was measured using CFDA-stained EIEC. The data were measured and analyzed with FlowJo software (Tree Star, Inc., Ashland, OR).

Data set [22] has as its system EIEC. Kind of data set: EIEC growth by spectrophotometry. The format is cell-based, Enteroinvasive Escherichia coli. As to conditions: 1 μg/ml of Romo1 protein.
Where [23] appears, read: mouse blood after 48 h of infection, 10 mg/kg iv single dose.
The mark [24] stands for this setting: peptides iv 1 h after infection, tail vein blood 1 h after peptide administration.

Where no end group is shown, it is not given here. Some results are limits rather than exact numbers.

For MMQSGGTFGTFMAIGMGIRC [M60-C79], in data set [1], the “MBC value S. aureus” value is above 300 µg/mL. The “MBC value P. aeruginosa” value in data set [2] is above 300 µg/mL.

Regarding GKTMMQSGGTFGTFMAIGMGIR [G57-R78], the “MBC value S. aureus” value in data set [1] was 300 µg/mL. The “MBC value P. aeruginosa” value in data set [2] came out at 280 µg/mL.

As for KTMMQSGGTFGTFMAIGMGIR [AMPR-11], the “clinical signs (death, weight loss)” value in data set [3] is recorded as “no severe clinical signs such as death or weight loss”. The “increase of survival rate” value was above 60% in data set [4] (C57BL/6N mice, 2 × 10^7 CFU iv, AMPR-11 10 mg/kg iv single dose 1 h after infection, 20 mice/group, 15 days); above 60% in [5]; above 60% in data set [7]; above 60% in [12] (C57BL/6N mice, 1 × 10^8 CFU iv, AMPR-11 10 mg/kg iv single dose 1 h after infection, 20 mice/group, 15 days); above 60% in [13] (C57BL/6N mice, 8 × 10^8 CFU iv, AMPR-11 10 mg/kg iv single dose 1 h after infection, 15 mice/group, 15 days); above 60% in data set [14] (C57BL/6N mice, 4 × 10^8 CFU iv, AMPR-11 10 mg/kg iv single dose 1 h after infection, 15 mice/group, 15 days). Moreover, the “increase of survival rate” value in data set [15] and in [17] was above 60% in each case. The “bacterial load in blood” value in data set [4] (setting [23]), in data set [12] (setting [23]), in data set [13] (setting [23]) and in [14] (setting [23]) was “decrease in the bacterial load in blood” throughout. Besides, the “antimicrobial activity in blood (CFU counts) compared with known AMPs” value in [5] (setting [24]) is listed as “statistically better than that of magainin 2, LL-37, or daptomycin”; in [7] (setting [24]) it was “statistically better than that of magainin 2, LL-37, or daptomycin”. In data set [6], the “antimicrobial activity after incubation with blood components” value is reported as “not inhibited by RBCs, LDL, HDL, or albumin”. Also, the “bacterial load in the liver, spleen, and kidney” value in data set [7] (CFU assay of organ homogenates, 10 mg/kg iv single dose) was “decrease in bacterial load in the liver, spleen, and kidney”. For the same molecule, the hemolytic activity result in [8] was “less cytotoxicity (Fig. 4A) and hemolytic activity (Fig. 4B) than magainin 2 and daptomycin”. Moreover, the “functional half-life in plasma” value in data set [9] is recorded as “approximately 50 min”. In addition, the “MBC value S. pneumoniae” value in data set [10] turned out to be 100 µg/mL. Further, in data set [11], the “MBC value Vancomycin-resistant S. aureus” value came out at 120 µg/mL. For the same molecule, the “bacterial load in blood over time” value in data set [12] (AMPR-11 administered immediately after infection, tail vein blood, CFU relative to PBS group) is reported as “rapidly decreased the bacterial load in blood”. Further, the “lipid preference (binding)” value in [16] is “specifically bound to lipid A and cardiolipin (CL)”. Besides, in [18], the CF release result is “to a similar extent as melittin”. Also, the “MBC value Vancomycin-resistant E. faecium” value in data set [19] came out at 100 µg/mL. Further, in data set [20], the “functional half-life in serum” value was around 40 min. In addition, the “time to kill bacteria” value in data set [21] (Fig. 2E, TAMRA-AMPR-11 with GFP-expressing EIEC) is at most 10 min.

For IGKTMMQSGGTFGTFMAIGMGIR [I56-R78], the “MBC value S. aureus” value in data set [1] is 300 µg/mL. Further, the “MBC value P. aeruginosa” value in data set [2] stood at 300 µg/mL.

Consider KTMMQSGGTFGTFMAIGM [K58-M75], for which the “MBC value S. aureus” value in data set [1] is 300 µg/mL. Besides, in data set [2], the “MBC value P. aeruginosa” value turned out to be 300 µg/mL.

GGIGKTMMQSGGTFGTFMAIGMGIR [G54-R78]: the “MBC value S. aureus” value in data set [1] was 300 µg/mL. Further, in [2], the “MBC value P. aeruginosa” value is 300 µg/mL.

In the case of LMGGIGKTMMQSGGTFGTFMAIGMGIRC [L52-C79], the “MBC value S. aureus” value in data set [1] was determined as 300 µg/mL. In addition, the “MBC value P. aeruginosa” value in [2] stood at 300 µg/mL.

On to KTMMQSGGTFGTFMAIGMGI [K58-I77], for which the “MBC value S. aureus” value in [1] stood at 300 µg/mL. The “MBC value P. aeruginosa” value in data set [2] came out at 300 µg/mL.

For GKTMMQSGGTFGTFMAIGMGIRC [G57-C79], the “MBC value S. aureus” value in [1] was found to be 280 µg/mL. In addition, the “MBC value P. aeruginosa” value in data set [2] stood at 250 µg/mL.

As to IGKTMMQSGGTFGTFMAIGMGIRC [I56-C79], in data set [1], the “MBC value S. aureus” value was 300 µg/mL. Moreover, in [2], the “MBC value P. aeruginosa” value was found to be 300 µg/mL.

Take KTMMQSGGTFGTFMAIGMGIRC [K58-C79]: in [1], the “MBC value S. aureus” value came out at 150 µg/mL. In addition, in data set [2], the “MBC value P. aeruginosa” value came out at 130 µg/mL.

With `C[C@@H](O)[C@H]1C(=O)N2C(C(=O)O)=C(SCCN=CN)C[C@H]12` [imipenem, reference compound], the “increase of survival rate” value in [5], in [7], in data set [15] and in [17] was “of little effectiveness” in each case.

Turning to MMQSGGTFGTFMAIGMGIR [M60-R78], in data set [1], the “MBC value S. aureus” value was 300 µg/mL. The “MBC value P. aeruginosa” value in [2] worked out at 300 µg/mL.

For the molecule KTMMQSGGTFGTFMAIGMG [K58-G76], in data set [1], the “MBC value S. aureus” value stood at 300 µg/mL. Further, in data set [2], the “MBC value P. aeruginosa” value is 300 µg/mL.

With GGIGKTMMQSGGTFGTFMAIGMGIRC [G54-C79], the “MBC value S. aureus” value in [1] worked out at 300 µg/mL. For the same molecule, the “MBC value P. aeruginosa” value in data set [2] is 300 µg/mL.

As for LMGGIGKTMMQSGGTFGTFMAIGMGIR [L52-R78], in data set [1], the “MBC value S. aureus” value came to 300 µg/mL. Moreover, the “MBC value P. aeruginosa” value in [2] was found to be 300 µg/mL.

B1: Romo1: reactive oxygen species modulator 1, chemically synthesized, dissolved in 75% trifluoroethanol (peptide, UniProt P60602 2-79, looked up)
Reactive oxygen species …: PVAVGPYGQSQPSCFDRVKMGFVMGCAVGMAAGALFGTFSCLRIGMRGRELMGGIGKTMMQSGGTFGTFMAIGMGIRC
Consider B1, for which the bacterial growth result in data set [22] is reported as “inhibited EIEC growth”. The GFP efflux result in data set [21] (100 nM Romo1, flow cytometry) is “induced green fluorescent protein (GFP) efflux”.
